According to patent publication US11331294B2, “Benzoquinone derivative E3330 in combination with chemotherapeutic agents for the treatment of bladder cancer” (Indiana University Research and Technology Corporation, priority 2007, dated 2022):

What was measured:
UC3 and T24 cells = test: Incucyte caspase-3/7 apoptosis assay; type: cell-based, human; conditions: red fluorescence over time
Procedure: UC3 and T24 cells were plated in 96-well plates at 3,500 cell/well and allowed to attach overnight. Increasing amounts of APX2009 or APX2014 were added to each well along with 1 μM of the caspase reagent (Caspase-3/7 Red, Essen Bioscience) and then the cells were allowed to recover for 2 hours prior to beginning imaging with the Incucyte system (Essen Bioscience). Each well was imaged for phase contrast as well as red fluorescence every 2 hours for 96 hours. The Incucyte software generated movies of the cells following treatment as well as real-time imaging data with red fluorescence normalized to the percent confluency of the well.
To assay for caspase-3/7 mediated apoptosis, the increase in red fluorescence was analyzed over time following the addition of APX2009 and APX2014.

UC3 cells = test: Methylene blue cell growth assay UC3; type: cell-based; conditions: Homo sapiens, read-out: cell growth-inhibitory IC50
Procedure: (§1) FIGS. 31A & 31B. Treatment with APE1/Ref-1 inhibitors potently blocks bladder cancer cell proliferation and activated Caspase 3/7. […] The IC50 values for FIG. 31A were determined using the methylene blue assay, n=4. […] T24 and UC3 cells were treated with APX2009 and APX2014 at the IC50 and IC90 and monitored over time for activation of capsase 3/7 by an increase in red fluorescence. Time course graphs are shown in FIG. 31B and representative images at 48 hr are shown in FIG. 32A (described more fully below), n=3-4.
FIGS. 36A-36H. […] In cytokine-induced T24 and UC3 cells NFκB-driven luciferase (FIG. 36A), STAT3-driven luciferase (FIG. 36B), and AP-1-driven luciferase (FIG. 36C) were quantified and normalized via Renilla following treatment with the corresponding cell growth-inhibitory IC50 concentrations. T24 cells were treated with APX2009 (8.5 μM) and APX2014 (6.5 μM), and UC3 cells were treated with APX2009 (6.1 μM) and APX2014 (4.6 μM) for 24 h. (*-p<0.05 APX treated vs vehicle, n=4). […] In the panels of FIGS. 36F & 36G, co-expression of survivin and APE1/Ref-1 was analyzed in superficial (FIG. 36F) and invasive human bladder tumors (FIG. 36G) in patients, and found nearly universal overlap of positivity in both in human samples. This was also true in cisplatin-refractory patients from the tissue microarray specimens (FIG. 36H). […]

RP-B-02 spheroids = test: 3D spheroid growth assay RP-B-02; type: cell-based, human; conditions: p<0.05
Excerpt: RP-B-01 and RP-B-02 cells were resuspended in normal growth media containing 3% Reduced Growth Factor Matrigel (BD Biosciences) at a cell density of 1,500 and 3,000 cells/well, respectively and plated in ultra-low adherence 96-well plates (Corning).
Spheroids were allowed to form and then treated on days 4, 8, and 12 following plating with media containing 5% serum, 3% Reduced Growth Factor Matrigel, and APE1/Ref-1 inhibitors. Vehicle control, DMSO, was less than 0.01% of the volume, and was equivalent in each well. On Day 15, Alamar blue reagent (LifeTechnologies) was added to each well (10 μL/well) and incubated for 24 hours.
In order to mimic tumor growth more accurately in a relevant microenvironment and in a more robust model for predicting response to treatment, a three-dimensional (3D) culture model of patient-derived RP-B-01 and RP-B-02 bladder cancer cells was used. Both RP-B-01 and RP-B-02 cell lines are transitional cell carcinoma staged as T4bN1Mx and T2bN0Mx Grade III tumors, respectively.

survivin and Cyclin D1 = test: Western blot of survival and proliferation proteins in cells; type: cell-based, human; conditions: immunoblot
Procedure: FIGS. 36A-36H. […] In cytokine-induced T24 and UC3 cells NFκB-driven luciferase (FIG. 36A), STAT3-driven luciferase (FIG. 36B), and AP-1-driven luciferase (FIG. 36C) were quantified and normalized via Renilla following treatment with the corresponding cell growth-inhibitory IC50 concentrations. T24 cells were treated with APX2009 (8.5 μM) and APX2014 (6.5 μM), and UC3 cells were treated with APX2009 (6.1 μM) and APX2014 (4.6 μM) for 24 h. (*-p<0.05 APX treated vs vehicle, n=4). […] In the panels of FIGS. 36F & 36G, co-expression of survivin and APE1/Ref-1 was analyzed in superficial (FIG. 36F) and invasive human bladder tumors (FIG. 36G) in patients, and found nearly universal overlap of positivity in both in human samples. This was also true in cisplatin-refractory patients from the tissue microarray specimens (FIG. 36H).
Whole cell extracts were prepared using RIPA (radioimmunoprecipitation) buffer containing protein inhibitors (1:100 PMSF, 1:100 orthovanadate and 1:100 protease inhibitor). Total protein concentration was determined via Lowry or BCA assay. 10-50 μg/well of each lysate was separated by SDS-PAGE using a 12% SDS-polyacrylamide gel. Blots were blocked with 5% nonfat dry milk in 1×TBS for 1 h and incubated overnight with primary antibodies to either APE1/Ref-1 (1:1000 dilution, Novus, NB-100-116), survivin (1:1000, Cell Signaling), Cyclin D1 (1:500, Abcam), PARP-1 (1:1000, Cell Signaling) or GAPDH (1:5000, Cell Signaling). After blots were washed three-six times with TBS-Tween, blots were incubated with HRP-conjugated secondary mouse antibodies (1:5000, Pierce). After washing three-six times with TBS-Tween, blots were visualized by enhanced chemiluminescence (West Pico/West Femto, Pierce).
For further confirmation of a decrease in NFκB and STAT3 transcriptional activity, levels of survivin and Cyclin D1 were examined Both survivin and Cyclin D1 are known to be downstream targets of NFκB and STAT3. […] However, unlike APE1/Ref-1, survivin expression was primarily nuclear in both urothelial confined and invasive lesions.

[1] = tested on: SW780, T24, UC3 cell lines; test: Methylene blue cell growth assay, bladder cancer cell panel; type: cell-based, human
Procedure: as §1
Bladder cancer cell proliferation was inhibited and apoptosis was induced by potent, selective redox inhibitors of APE1/Ref-1.

CB-ECFC cells = test: Capillary tube formation assay on […]; type: cell-based; conditions: about eight hours after seeding
Procedure: Inhibition of capillary tube formation. The capillary tube formation assay was performed using CB-ECFC cells plated on […]® and treated with APX3330 or control media. ECFCs were cultured as previously described (Blood, 1 Nov. 2004, Vol. 104, No. 9, pp. 2752-2760). ECFC colonies appeared between 5 and 22 days of culture. Colonies were counted by visual inspection using an inverted microscope (Olympus, Lake Success, N.Y.) under ×40 magnification. Cells were passaged as previously described. Blood, 1 Nov. 2004, Vol. 104, No. 9, pp. 2752-2760.)
The tube formation assay was performed as described previously (J. Biol. Chem. 274 (1999), pp. […]). Various concentrations of APX3330 were given to CB-ECFCs for about 30 min at room temperature before seeding and plated onto the layer of […]® at a density of about 1×10^4 cells/well. After about eight hours, the enclosed networks of complete tubes from randomly chosen fields were counted and photographed under a microscope.

MCF-7 tumor cells = test: MTS cell survival assay MCF-7; type: cell-based, human; conditions: about 24 or 72 h
Procedure: Decreased cancer cell survival. MCF-7 or OVCAR-3 cells (about 2-4,000) were aliquoted into each well of a 96-well plate in triplicate and allowed to adhere overnight. APX3330 (RN3-3) was added to the cultures. After about 24 or 72 h, about 0.05 mg/mL 3-(4-5-Dimethylthiazol-2-yl)-5-(3-carboxymethoxyphenyl)-2-(4-sulfophenyl)-2H-tetrazolium salt (MTS) reagent was added to each well and incubated at about 37° C. for about 4 h followed by absorbance measurement at 490 nm. The values were standardized to wells containing media alone. […] Similar effects can be seen in multiple myeloma, prostate, non-small cell lung carcinoma, colon, and glioma derived cells.

Structure (SMILES) | caspase-3/7 activation (UC3 and T24 cells) | IC50 (UC3 cells) [µM] | potency in RP-B-02 cells in 3D culture relative to APX3330 (RP-B-02 spheroids) | expression of c-Myc, Bcl-2, Bcl-XL (survivin and Cyclin D1) | expression of survivin and Cyclin D1 (survivin and Cyclin D1) | fold lower IC50 than APX3330 [1] [fold] | tube formation (CB-ECFC cells) | killing of MCF-7 tumor cells (MCF-7 tumor cells)
CCC/C(=C\C1=C(OC)C(=O)c2ccccc2C1=O)C(=O)N(CC)CC [APX2009, [(2E)-2-[(3-methoxy-1,4-dioxo-1,4-dihydronaphthalen-2-yl)methylidene]-N,N-diethylpentanamide]] | dose-dependent increase in caspase activation | 6.1 | more potent in the RP-B-02 cells than parent compound APX3330 | No change in expression | significantly down-regulated | 7 | – | –
CCCCCCCCC/C(=C\C1=C(C)C(=O)C(OC)=C(OC)C1=O)C(=O)O [APX3330] | – | – | – | – | – | – | inhibit tube formation | dose dependently killed
